Reference: patent publication US6632808B1 (priority 1998, dated 2003)

System: hamster 263K scrapie
Set-up: species or system transgenic mice over-expressing the hamster PrP-sen (Tg7)
Details: in vivo

Phthalocyanine tetrasulfonate [PcTS] was tested, and the “animals surviving a minimum of 200 days” value was 60%, the “increase of survival times, late treatment” value was “one week” and the “survival longer than untreated controls” value was “approximately 120 days”. For the same substance, the “survivors at >170 Dpi” value was 80%.
